Laboratory results from patent US20230346986A1, “METHODS AND AGENTS FOR THE DETECTION AND TREATMENT OF CANCER” (CASE WESTERN RESERVE UNIVERSITY, priority 2019, published 2023).

Molecular target: T1, PSMA (Homo sapiens, UniProt Q04609)
T1 construct: endogenous in cells; host or cells: LNcap cells
Assay: Competition binding assay with 3H-ZJ24 on LNcap cells
Details: 3H-ZJ24 12 nmol/L, 1 h at 37° C.
Procedure: […] used to test the binding affinity of NPs. Specifically, […] cultured in RPMI1640 medium, harvested, washed with 0.5 mM cold Tris buffer, and divided into 1.5 mL Eppendorf tubes at 5×10^5 cells per tube. […] All the tubes were then centrifuged and cells were washed three times with cold PBS. […] The concentration of ligands required to inhibit 50% of binding (IC50) was determined using GraphPad Prism 3.0.

T1 sequence (Q04609 whole entry): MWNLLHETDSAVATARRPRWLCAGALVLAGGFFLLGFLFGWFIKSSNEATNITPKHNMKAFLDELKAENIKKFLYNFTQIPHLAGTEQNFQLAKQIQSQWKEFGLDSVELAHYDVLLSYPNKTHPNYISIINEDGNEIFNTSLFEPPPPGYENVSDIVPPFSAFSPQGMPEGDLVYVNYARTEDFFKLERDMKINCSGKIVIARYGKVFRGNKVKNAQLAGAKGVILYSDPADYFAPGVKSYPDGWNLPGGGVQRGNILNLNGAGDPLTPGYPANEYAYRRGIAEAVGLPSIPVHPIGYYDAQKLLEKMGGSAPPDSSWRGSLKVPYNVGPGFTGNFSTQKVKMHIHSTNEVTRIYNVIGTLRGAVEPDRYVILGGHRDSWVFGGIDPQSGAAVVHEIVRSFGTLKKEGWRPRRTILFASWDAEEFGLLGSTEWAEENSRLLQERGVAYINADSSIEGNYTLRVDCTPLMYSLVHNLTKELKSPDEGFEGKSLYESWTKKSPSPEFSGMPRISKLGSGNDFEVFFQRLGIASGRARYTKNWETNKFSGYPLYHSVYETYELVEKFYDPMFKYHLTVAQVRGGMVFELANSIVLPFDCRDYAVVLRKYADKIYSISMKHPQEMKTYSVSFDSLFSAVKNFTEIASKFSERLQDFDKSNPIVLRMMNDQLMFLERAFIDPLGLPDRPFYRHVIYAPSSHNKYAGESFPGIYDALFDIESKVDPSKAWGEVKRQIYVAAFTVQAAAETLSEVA

- IC50: 9.79 nM
Compound: CSC[C@H](NC(=O)N[C@@H](CCC(=O)O)C(=O)O)C(=O)O [ZJ24]
